The values that follow come from patent US12503452B2 (Curza Global, LLC, priority 2019, dated 2025).

The target in assay [1] is Rabbit Reticulocyte Lysate (eukaryotic protein synthesis). The assay is described as follows: Rabbit reticulocyte lysate luciferase assay (inhibition of eukaryotic protein synthesis). The format is biochemical. Particulars: class by IC50 or % inhibition @ 1 μM, read-out: Rabbit reticulocyte IC50 (μM/% inhib.). The gist of the method:
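Compounds were tested in 8-point 2-fold dilution series for blocking luciferase synthesis in nuclease-treated rabbit reticulocyte lysate (30° C., 90 minutes). Luminescence read-out, corrected by no-RNA background, was expressed as % inhibition against water-only reactions.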

The test system of assay [2] is A. baumannii (Ab). The assay is described as follows: Broth microdilution minimum inhibitory concentration (MIC). Particulars: Acinetobacter baumannii; A. baumannii; growth medium with sodium bicarbonate; read-out: Ab + bicarb MIC. The format is cell-based. The gist of the method: (§1)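 Two-fold compound series, 8 points in triplicate; medium CAMHB ± NaHCO3 (6.25 or 25 mM final) or ± 0–50% heat-inactivated human serum; inoculum 5×10^4 CFU/well; growth-method 0.5 McFarland suspensions; modified CLSI M07-A9.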

The test system of assay [3] is P. aeruginosa (Pa). The assay is described as above. The format is cell-based. The conditions noted are these: Pseudomonas aeruginosa, P. aeruginosa; growth medium with sodium bicarbonate; read-out: Pa MIC + bicarb. In a few lines:
as §1

In assay [4] the test system is E. coli (Ec). Described as above. The format is cell-based. The conditions noted are these: Escherichia coli, E. coli; growth medium with sodium bicarbonate; read-out: E. coli + bicarb MIC. In a few lines:
as §1

In assay [5] the test system is E. faecalis (Ef). Described as above. The format is cell-based. The conditions noted are these: Enterococcus faecalis, E. faecalis; growth medium with sodium bicarbonate; read-out: Ef + bicarb MIC. The gist of the method: as §1
The subject of assay [6] is S. aureus (Sa). Described as above. The format is cell-based. Particulars: Staphylococcus aureus, S. aureus; growth medium with sodium bicarbonate; read-out: Sa + bicarb MIC. In a few lines:
as §1

For assay [7], the system named is E. coli S30 extract (bacterial protein synthesis). The assay is described as follows: E. coli S30 extract coupled transcription-translation luciferase assay (inhibition of bacterial protein synthesis). The format is biochemical. The conditions noted are these: class by IC50 or % inhibition @ 1 μM, read-out: S30 IC50 (μM/% inhib.). The gist of the method: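 Luminescent read-out of luciferase made from pBESTluc DNA by E. coli S30 extract after 1 h at 37 °C with compound in an 8-point 2-fold series. Background came from no-DNA reactions. Percent inhibition was calculated against water-only controls.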

The term MIC denotes the lowest concentration that inhibits growth of the organism. `CC(C)(N)C(=O)N1CCN(C(=O)Nc2ccn(-c3ccc(CN4CC(O)(CCN)C4)cc3)c(=O)n2)CC1` [Compound 205]: the figures for the IC50 in assay [1] and in assay [7] were above 1 µM and below 0.5 µM, respectively. The MIC was above 32 µg/mL in assay [2]; above 32 µg/mL in assay [3]; below 8 µg/mL in assay [4]; above 32 µg/mL in assay [5]; 8 to 32 µg/mL in assay [6].
On to `CC(C)(N)C(=O)N1CCN(C(=O)Nc2ccn(-c3ccc(CN4CC[C@@H](N)[C@@H](F)C4)cc3)c(=O)n2)CC1` [Compound 209], for which the IC50 in assay [1] and in assay [7] was above 1 µM in each case. Moreover, the minimal inhibitory concentration (MIC) in assay [2] was above 32 µg/mL; in assay [3], above 32 µg/mL; in assay [4] it was below 8 µg/mL; in assay [5], above 32 µg/mL; in assay [6], above 32 µg/mL.
Regarding `C[C@@H]1CN(Cc2ccc(-n3ccc(NC(=O)N4CCN(C(=O)C(C)(C)N)CC4)nc3=O)cc2)CC[C@H]1N` [Compound 210], the values for the IC50 in assay [1] and in assay [7] were above 1 µM and below 0.5 µM, respectively. The MIC is above 32 µg/mL in assay [2]; above 32 µg/mL in assay [3]; below 8 µg/mL in assay [4]; below 8 µg/mL in assay [5]; below 8 µg/mL in assay [6].
With `C[C@H]1CN(Cc2ccc(-n3ccc(NC(=O)N4CCN(C(=O)C(C)(C)N)CC4)nc3=O)cc2)CC[C@H]1N` [Compound 211], the figures for the IC50 in assay [1] and in assay [7] were above 1 µM and 0.5 to 1 µM, respectively. The minimal inhibitory concentration (MIC) is above 32 µg/mL in assay [2]; above 32 µg/mL in assay [3]; below 8 µg/mL in assay [4]; 8 to 32 µg/mL in assay [5]; below 8 µg/mL in assay [6].
For the compound `CC[C@H]1CN(Cc2ccc(-n3ccc(NC(=O)N4CCN(C(=O)C(C)(C)N)CC4)nc3=O)cc2)CC[C@H]1N` [Compound 212], the figures for the IC50 in assay [1] and in assay [7] were above 1 µM and 0.5 to 1 µM, respectively. For the same compound, the MIC in assay [2] is above 32 µg/mL; in assay [3] it was above 32 µg/mL; in assay [4] it was below 8 µg/mL; in assay [5], below 8 µg/mL; in assay [6], below 8 µg/mL.
On to `C[C@@H](N)C1CCN(Cc2ccc(-n3ccc(NC(=O)N4CCN(C(=O)C(C)(C)N)CC4)nc3=O)cc2)CC1` [Compound 219], for which the IC50 is above 1 µM in assay [1] and 0.5 to 1 µM in assay [7]. Besides, the minimal inhibitory concentration (MIC) in assay [2] was above 32 µg/mL; in assay [3] it was above 32 µg/mL; in assay [4], below 8 µg/mL; in assay [5] it was 8 to 32 µg/mL; in assay [6], below 8 µg/mL.
Take `C[C@H](N)C1CCN(Cc2ccc(-n3ccc(NC(=O)N4CCN(C(=O)C(C)(C)N)CC4)nc3=O)cc2)CC1` [Compound 220]: the results for the IC50 in assay [1] and in assay [7] were above 1 µM and below 0.5 µM, respectively. Besides, the MIC in assay [2] is 8 to 32 µg/mL; in assay [3] it was above 32 µg/mL; in assay [4], below 8 µg/mL; in assay [5], 8 to 32 µg/mL; in assay [6], below 8 µg/mL.
Take `CC(C)(N)C(=O)N1CCN(C(=O)Nc2ccn(-c3ccc(CN4CC[C@@H](N)[C@H](CO)C4)cc3)c(=O)n2)CC1` [Compound 227]: the IC50 in assay [1] and in assay [7] was above 1 µM throughout. The minimum inhibitory concentration (MIC) in assay [2] was above 32 µg/mL; in assay [3] it was above 32 µg/mL; in assay [4], 8 to 32 µg/mL; in assay [5] it was above 32 µg/mL; in assay [6], above 32 µg/mL.
In the case of `CC(C)(N)CC1(F)CCN(C(=O)Nc2ccn(-c3ccc(CN4CCC(N)CC4)cc3)c(=O)n2)CC1` [Compound 233], the IC50 in assay [1] and in assay [7] was above 1 µM in each case. The MIC in assay [2] was above 32 µg/mL; in assay [3], above 32 µg/mL; in assay [4], below 8 µg/mL; in assay [5], above 32 µg/mL; in assay [6] it was below 8 µg/mL.
Take `CC(C)(N)C(=O)N1CCN(C(=O)Nc2ccn(-c3ccc(CN4CC[C@H](CN)C4)cc3)c(=O)n2)CC1` [Compound 242]: the IC50 in assay [1] is above 1 µM; in assay [7] it was below 0.5 µM. For the same compound, the MIC was above 32 µg/mL in assay [2]; above 32 µg/mL in assay [3]; below 8 µg/mL in assay [4]; 8 to 32 µg/mL in assay [5]; below 8 µg/mL in assay [6].
Regarding `CC(C)(N)C(=O)N1CCN(C(=O)Nc2ccn(-c3ccc(CN4CC[C@@H](CN)C4)cc3)c(=O)n2)CC1` [Compound 243], the IC50 in assay [1] is above 1 µM; in assay [7] it was below 0.5 µM. Further, the minimal inhibitory concentration (MIC) in assay [2] is above 32 µg/mL; in assay [3] it was above 32 µg/mL; in assay [4], below 8 µg/mL; in assay [5], 8 to 32 µg/mL; in assay [6], below 8 µg/mL.
For `CC(C)(N)C(=O)N1CCN(C(=O)Nc2ccn(-c3ccc(CN4CCC(CN)CC4)cc3)c(=O)n2)CC1` [Compound 245], the IC50 in assay [1] is above 1 µM; in assay [7], below 0.5 µM. The minimum inhibitory concentration (MIC) in assay [2] is above 32 µg/mL; in assay [3], above 32 µg/mL; in assay [4] it was below 8 µg/mL; in assay [5], below 8 µg/mL; in assay [6] it was below 8 µg/mL.
On to `CC(N)C1CCN(Cc2ccc(-n3ccc(NC(=O)N4CCN(C(=O)C(C)(C)N)CC4)nc3=O)cc2)CC1` (stereo not shown) [Compound 247], for which the IC50 in assay [1] was above 1 µM; in assay [7], below 0.5 µM. Besides, the minimal inhibitory concentration (MIC) in assay [2] was above 32 µg/mL; in assay [3] it was above 32 µg/mL; in assay [4], below 8 µg/mL; in assay [5], below 8 µg/mL; in assay [6] it was below 8 µg/mL.
In the case of `CC1(CN)CCN(Cc2ccc(-n3ccc(NC(=O)N4CCN(C(=O)C(C)(C)N)CC4)nc3=O)cc2)CC1` [Compound 249], the IC50 in assay [1] is above 1 µM; in assay [7], below 0.5 µM. In addition, the MIC in assay [2] was above 32 µg/mL; in assay [3], above 32 µg/mL; in assay [4], below 8 µg/mL; in assay [5] it was 8 to 32 µg/mL; in assay [6] it was below 8 µg/mL.
In the case of `CC1CN(Cc2ccc(-n3ccc(NC(=O)N4CCN(C(=O)C(C)(C)N)CC4)nc3=O)cc2)CCC1N` (stereo not shown) [Compound 251], the IC50 was above 1 µM in assay [1] and below 0.5 µM in assay [7]. Moreover, the minimum inhibitory concentration (MIC) in assay [2] was above 32 µg/mL; in assay [3] it was above 32 µg/mL; in assay [4], below 8 µg/mL; in assay [5] it was below 8 µg/mL; in assay [6], below 8 µg/mL.
For the compound `CC(C)(N)C(=O)N1CCN(C(=O)Nc2ccn(-c3ccc(CN4CCC(N)C(C)(C)C4)cc3)c(=O)n2)CC1` (stereo not shown) [Compound 254], the IC50 in assay [1] was above 1 µM; in assay [7], 0.5 to 1 µM. Besides, the minimum inhibitory concentration (MIC) was below 8 µg/mL in assay [2]; above 32 µg/mL in assay [3]; below 8 µg/mL in assay [4]; below 8 µg/mL in assay [5]; below 8 µg/mL in assay [6].
Take `CC(C)(N)C(=O)N1CCN(C(=O)Nc2ccn(-c3ccc(CN4CC[C@@H](N)[C@H](O)C4)cc3)c(=O)n2)CC1` [Compound 268]: the IC50 in assay [1] and in assay [7] was above 1 µM throughout. For the same compound, the MIC in assay [2] was above 32 µg/mL; in assay [3] it was above 32 µg/mL; in assay [4], 8 to 32 µg/mL; in assay [5], above 32 µg/mL; in assay [6], 8 to 32 µg/mL.
For the compound `CC(C)(N)C(=O)N1CCN(C(=O)Nc2ccn(-c3ccc(CC(=O)N4CCC(N)CC4)cc3)c(=O)n2)CC1` [Compound 269], the IC50 in assay [1] and in assay [7] was above 1 µM each time. Besides, the minimum inhibitory concentration (MIC) is above 32 µg/mL in assay [2]; above 32 µg/mL in assay [3]; 8 to 32 µg/mL in assay [4]; above 32 µg/mL in assay [5]; above 32 µg/mL in assay [6].
As to `Cc1cc(-n2ccc(NC(=O)N3CCN(C(=O)C(C)(C)N)CC3)nc2=O)ccc1CN(CC1CC1)C1CCC(N)CC1` (stereo not shown) [Compound 270], the IC50 in assay [1] is above 1 µM; in assay [7], below 0.5 µM. The MIC in assay [2] was below 8 µg/mL; in assay [3] it was 8 to 32 µg/mL; in assay [4], below 8 µg/mL; in assay [5] it was below 8 µg/mL; in assay [6], below 8 µg/mL.
Take `CC(C)(N)C(=O)N1CCN(C(=O)Nc2ccn(-c3ccc(CNC4CCC(N)CC4)c(Cl)c3)c(=O)n2)CC1` (stereo not shown) [Compound 271]: the results for the IC50 in assay [1] and in assay [7] were above 1 µM and below 0.5 µM, respectively. Also, the MIC is above 32 µg/mL in assay [2]; above 32 µg/mL in assay [3]; below 8 µg/mL in assay [4]; below 8 µg/mL in assay [5]; below 8 µg/mL in assay [6].
For `CN(Cc1ccc(-n2ccc(NC(=O)N3CCN(C(=O)C(C)(C)N)CC3)nc2=O)cc1Cl)C1CCC(N)CC1` (stereo not shown) [Compound 272], the IC50 in assay [1] is above 1 µM; in assay [7], below 0.5 µM. Further, the minimal inhibitory concentration (MIC) in assay [2] is below 8 µg/mL; in assay [3], 8 to 32 µg/mL; in assay [4] it was below 8 µg/mL; in assay [5] it was below 8 µg/mL; in assay [6], below 8 µg/mL.
Take `CCN(Cc1ccc(-n2ccc(NC(=O)N3CCN(C(=O)C(C)(C)N)CC3)nc2=O)cc1Cl)C1CCC(N)CC1` (stereo not shown) [Compound 273]: the IC50 in assay [1] is above 1 µM; in assay [7] it was below 0.5 µM. The minimum inhibitory concentration (MIC) is below 8 µg/mL in assay [2]; 8 to 32 µg/mL in assay [3]; below 8 µg/mL in assay [4]; below 8 µg/mL in assay [5]; below 8 µg/mL in assay [6].
